Experimental data published in patent publication US20240057600A1, “METHODS FOR CONTROLLING OR PREVENTING INFESTATION OF PLANTS BY A PHYTOPATHOGENIC MICROORGANISM OF THE GENUS ASPERGILLUS” (priority 2020, published 2024).
Values after ≈ are worked out from the molar mass of the structure shown. Where two headings read alike, the source gives them in different places.

How the values were obtained:
[1] = tested on: Aspergillus niger; assay: Peanut field trial, seed treatment, pest incidence 42 days after planting; assay type: in vivo, Aspergillus niger on Arachis hypogaea (peanut)
Description: A peanut field trial was carried out on May 11, 2020 in Malpur, Gujarat, India, to evaluate the efficacy of different compounds against Aspergillus sp. fungi. The disease symptoms started to occur 4 weeks after planting and an assessment on disease incidence (% infected plants) was done 42 days after planting.
Pest Incidence, 42 Days after Planting

[2] = tested on: Aspergillus niger isolates; assay: In vitro mycelial growth inhibition assay on amended agar; assay type: cell-based; conditions: 120 h, 5 days incubation, 22 C
Description: (§1) The sensitivity to cyclobutrifluram of 104 isolates of Aspergillus niger and 31 isolates of Aspergillus flavus was determined under in vitro lab conditions using a mycelial growth inhibition assay. Isolates of Aspergillus niger were retrieved from infected seeds or infected plants with clear symptoms of crown rot disease. Isolates of Aspergillus flavus were collected from infected seeds. The sensitivity to azoxystrobin of the isolates was determined under in vitro conditions using a conidial germination inhibition assay. Sensitivity tests were conducted in vitro using agar medium amended with cyclobutrifluram or azoxystrobin at the following concentrations: 0, 0.001, 0.01, 0.1, 1, and 10 mg a.i./L. The plates were incubated at room temperature (22 C). The mycelial growth of the colonies growing on plates amended or not with cyclobutrifluram was determined after 5 days of incubation. The conidial germination on agar plates amended or not with azoxystrobin was determined after 18 hours of incubation. A conidium was rated as germinated, if a normally developing germ tube had at least the length of a conidium. […] Effective dose values (EC50) are expressed in mg of cyclobutrifluram or azoxystrobin active ingredient/L. [table] [table]

[3] = tested on: Aspergillus flavus isolates; assay: as above; assay type: cell-based; conditions: 120 h, 5 days incubation, 22 C
Description: as §1

[4] = tested on: Aspergillus niger isolates; assay: In vitro conidial germination inhibition assay on amended agar; assay type: cell-based; conditions: 104 A. niger isolates, 18 hours incubation; for EC50 values, minimum: 22 C; for EC50 values, maximum: highest concentration used 10 mg a.i./L
Description: as §1

[5] = tested on: Aspergillus flavus isolates; assay: as above; assay type: cell-based; conditions: 31 A. flavus isolates, 18 hours incubation; for EC50 values, maximum: highest concentration used 10 mg a.i./L
Description: as §1

EC50 ([2]; 104 A. niger isolates, read-out: EC50 values, maximum) [mg/L] | EC50 ([2]; 104 A. niger isolates, read-out: EC50 values, minimum) [mg/L] | EC50 ([3]; 31 A. flavus isolates, read-out: EC50 values, maximum) [mg/L] | EC50 ([3]; 31 A. flavus isolates, read-out: EC50 values, minimum) [mg/L] | Compound | Pest incidence (LS Means) ([1]; peanut GG 20, field trial Malpur, Gujarat, India, seed treatment, 42 days after planting, rates g AI/100 kg: VITAVAX 225, cyclobutrifluram 60, VIBRANCE MAXX 150, EVERGOL XTEND 30.8) | % efficacy based on disease incidence ([1]; peanut GG 20, field trial, seed treatment, 42 days after planting, rates g AI/100 kg: VITAVAX 225, cyclobutrifluram 60, VIBRANCE MAXX 150, EVERGOL XTEND 30.8) [%] | Aspergillus niger pest incidence compared to the untreated and standard treatments ([1]; treatment 3, 60 g AI/100 kg seed treatment, 42 days after application) | EC50 ([2]; 104 A. niger isolates from infected peanut seeds or plants, read-out: EC50 values, mean (geometric mean)) [mg/L] | EC50 ([3]; 31 A. flavus isolates from infected peanut seeds, read-out: EC50 values, mean (geometric mean)) [mg/L] | EC50 values, minimum [4] [mg · ai/L] | EC50 values, minimum ([4]; listed as azoxystrobin) [mg · ai/L] | EC50 values, maximum [4] [mg · ai/L] | EC50 values, maximum ([4]; listed as azoxystrobin) | EC50 values, minimum ([5]; 22 C) [mg · ai/L] | EC50 values, maximum [5] [mg · ai/L] | EC50 values, maximum ([5]; listed as azoxystrobin)
0.703 (≈ 1.81 µM) | 0.00924 (≈ 0.0238 µM) | 0.7 (≈ 1.8 µM) | 0.0262 (≈ 0.0673 µM) | O=C(N[C@@H]1CC[C@@H]1c1ccc(Cl)cc1Cl)c1cccnc1C(F)(F)F (racemic) [Cyclobutrifluram, cyclobutrifluram] | 0.42, % infected plants | 97.03 | significantly lower | 0.082 (≈ 0.211 µM) | 0.108 (≈ 0.277 µM) | – | – | – | – | – | – | –
– | – | – | – | CO/C=C(/C(=O)OC)c1ccccc1Oc1cc(Oc2ccccc2C#N)ncn1 [Azoxystrobin, azoxystrobin] | – | – | – | – | – | <0.001 | 0.000793 | >10 | more than 10 mg · ai/L | 0.003457 | >10 | more than 10 mg · ai/L
